Consider three molecules from ChEMBL document CHEMBL1201862, “PubChem BioAssay data set” (2004).

Activity calls are given as the source filed them.

Some targets named below: Aurora kinase B (Homo sapiens, UniProt Q96GD4); Aurora kinase A (Homo sapiens, UniProt O14965); Focal adhesion kinase 1 (Homo sapiens, UniProt Q05397).
Holding throughout (type): functional
For test [1], the target named is T1, Glycogen synthase kinase-3 beta (Homo sapiens, UniProt P49841). The experiment in a line: inhibition of human GSK3B activity – biochemical, microfluidics, dry powder samples, set 2, dose response (AID 623989).
The target in test [2] is T2, Glycogen synthase kinase-3 alpha (Homo sapiens, UniProt P49840). The experiment in a line: GSK3A enzyme blockers, homolog specificity check – biochemical, microfluidics, dry powder samples, set 2, selectivity assay for GSK3beta inhibitor project, dose response (AID 623978).
For test [3], the target named is Cyclin-dependent kinase 5/CDK5 activator 1 (Homo sapiens, UniProt Q00535). The experiment in a line: inhibitors of human CDK5 activity – biochemical, microfluidic mobility shift, dry powder, set 2, selectivity assay for GSK3beta inhibitor project, dose response (AID 623979).
The target in test [4] is Vascular endothelial growth factor receptor 2 (Homo sapiens, UniProt P35968).
Test [5] has as its target Death-associated protein kinase 3 (Homo sapiens, UniProt O43293).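 Further: measured as one member of a kinome-wide profiling panel.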
Test [6] addresses Ribosomal protein S6 kinase alpha-3 (Homo sapiens, UniProt P51812).
Test [7] concerns the target Mitogen-activated protein kinase kinase kinase kinase 4 (Homo sapiens, UniProt O95819).
For test [8], the target named is Tyrosine-protein kinase ABL1 (Homo sapiens, UniProt P00519).
The target in test [9] is Serine/threonine-protein kinase Chk1 (Homo sapiens, UniProt O14757).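 Further: measured as one member of a kinome-wide kinase profiling panel.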
Test [10] has as its target Dual specificity protein kinase CLK2 (Homo sapiens, UniProt P49760).
The target of test [11] is Mitogen-activated protein kinase kinase kinase kinase 2 (Homo sapiens, UniProt Q12851).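 Further: measured as one member of a kinome-wide kinase panel, with MAP4K2 as the panel entry.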
Test [12] has as its target Dual specificity protein kinase CLK4 (Homo sapiens, UniProt Q9HAZ1).
In test [13] the target is Dual specificity tyrosine-phosphorylation-regulated kinase 1B (Homo sapiens, UniProt Q9Y463). The test is described as follows: Navigating the Kinome. Panel member name: DYRK1B.
Test [14] has as its target T1, Glycogen synthase kinase-3 beta.
Test [15] concerns the target Dual specificity tyrosine-phosphorylation-regulated kinase 1A (Homo sapiens, UniProt Q13627).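 Further: measured against DYRK1A as one member of a broad kinome profiling panel.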
Test [16] concerns the target Serine/threonine-protein kinase D3 (Homo sapiens, UniProt O94806).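 Further: determined within a kinase panel screen, with PRKCN as the panel member.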
In test [17] the target is Casein kinase I isoform alpha (Homo sapiens, UniProt P48729).
For test [18], the target named is Macrophage-stimulating protein receptor (Homo sapiens, UniProt Q04912). The experiment in a line: Navigating the Kinome. Panel member name: MST1R.
A further test deals with LIM domain kinase 1 (Homo sapiens, UniProt P53667). The experiment in a line: Navigating the Kinome. Panel member name: LIMK1.
In test [19] the target is cAMP-dependent protein kinase catalytic subunit alpha (Homo sapiens, UniProt P17612).
Test [20] deals with Serine/threonine-protein kinase PAK 4 (Homo sapiens, UniProt O96013).
The target in test [21] is Vascular endothelial growth factor receptor 1 (Homo sapiens, UniProt P17948).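 Further: measured within a kinome-wide profiling panel, FLT1 as the panel member.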
For test [22], the target named is Proto-oncogene tyrosine-protein kinase receptor Ret (Homo sapiens, UniProt P07949).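 Further: measured within a kinome-wide profiling panel, RET as the panel member.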
Test [23] addresses Cyclin-dependent kinase 7 (Homo sapiens, UniProt P50613).
Test [24] deals with Serine/threonine-protein kinase pim-1 (Homo sapiens, UniProt P11309).
Test [25] deals with Cyclin-dependent kinase 8 (Homo sapiens, UniProt P49336). The test is described as follows: Navigating the Kinome. Panel member name: CDK8.
Test [26] has as its target Rho-associated protein kinase 1 (Homo sapiens, UniProt Q13464).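 Further: measured within a broad kinome-wide panel profiling many kinases.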
Test [27] has as its target Dual specificity mitogen-activated protein kinase kinase 1 (Homo sapiens, UniProt Q02750). The experiment in a line: Navigating the Kinome. Panel member name: MAP2K1.
Test [28] has as its target Leukocyte tyrosine kinase receptor (Homo sapiens, UniProt P29376). The experiment in a line: Navigating the Kinome. Panel member name: LTK.
Test [29] concerns the target Tyrosine-protein kinase receptor TYRO3 (Homo sapiens, UniProt Q06418).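 Further: TYRO3 value obtained as one member of a kinome-wide profiling panel.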
The target in test [30] is Cyclin-dependent kinase 9 (Homo sapiens, UniProt P50750).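 Further: value from the CDK9 entry of a kinome-spanning kinase panel.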
The target of test [31] is Cyclin-dependent kinase 19 (Homo sapiens, UniProt Q9BWU1). The experiment in a line: Navigating the Kinome. Panel member name: CDC2L6.
Test [32] has as its target Macrophage colony-stimulating factor 1 receptor (Homo sapiens, UniProt P07333).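 Further: value comes from the Navigating the Kinome screening panel, CSF1R member.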
The target of a further test is Activin receptor type-1 (Homo sapiens, UniProt Q04771). The experiment in a line: Navigating the Kinome. Panel member name: ACVR1.
Test [33] deals with Calcium/calmodulin-dependent protein kinase type II subunit alpha (Homo sapiens, UniProt Q9UQM7). The experiment in a line: Navigating the Kinome. Panel member name: CAMK2A.
The target of test [34] is 5'-AMP-activated protein kinase catalytic subunit alpha-1 (Homo sapiens, UniProt Q13131).
Test [35] has as its target ALK tyrosine kinase receptor (Homo sapiens, UniProt Q9UM73).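 Further: ALK tested as one member of a kinase panel screen.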
For test [36], the target named is Serine/threonine-protein kinase TBK1 (Homo sapiens, UniProt Q9UHD2). The experiment in a line: Navigating the Kinome. Panel member name: TBK1.
For test [37], the target named is Protein kinase C theta type (Homo sapiens, UniProt Q04759). The test is described as follows: Navigating the Kinome. Panel member name: PRKCQ.
Test [38] addresses cAMP-dependent protein kinase catalytic subunit PRKX (Homo sapiens, UniProt P51817).
Test [39] addresses T2, Glycogen synthase kinase-3 alpha.
For test [40], the target named is Leucine-rich repeat serine/threonine-protein kinase 2 (Homo sapiens, UniProt Q5S007).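 Further: value from a broad kinome-wide panel profiling study in which LRRK2 was one of the kinases tested.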
In test [41] the target is Fibroblast growth factor receptor 1 (Homo sapiens, UniProt P11362).
Test [42] deals with Mitogen-activated protein kinase 8 (Homo sapiens, UniProt P45983).
The target of test [43] is Melanin-concentrating hormone receptor 1 (Homo sapiens, UniProt Q99705). The test is described as follows: Late-stage fluorescence-based counterscreen for antagonists of the G-protein coupled receptor 7 (GPR7): cell-based dose response assay to identify antagonists of the melanin-concentrating hormone receptor 1 (MCHR1) Set 5.
The target of test [44] is T3, Neuropeptides B/W receptor type 1 (Homo sapiens, UniProt P48145).
T3 sequence (P48145 whole entry): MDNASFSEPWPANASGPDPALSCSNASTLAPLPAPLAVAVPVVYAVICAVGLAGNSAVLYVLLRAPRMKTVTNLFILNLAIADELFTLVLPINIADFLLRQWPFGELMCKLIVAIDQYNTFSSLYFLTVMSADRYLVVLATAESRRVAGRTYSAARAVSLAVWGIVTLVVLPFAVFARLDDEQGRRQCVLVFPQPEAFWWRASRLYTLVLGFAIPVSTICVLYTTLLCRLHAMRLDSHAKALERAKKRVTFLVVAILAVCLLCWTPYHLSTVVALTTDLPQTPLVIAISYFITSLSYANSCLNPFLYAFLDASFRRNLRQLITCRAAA
The test is described as follows: human NPBW1 receptor blockade, IC50 – cell-based, fluorescence, dose response, set 5, late-stage follow-up (AID 588566).

T1 sequence (P49841 whole entry): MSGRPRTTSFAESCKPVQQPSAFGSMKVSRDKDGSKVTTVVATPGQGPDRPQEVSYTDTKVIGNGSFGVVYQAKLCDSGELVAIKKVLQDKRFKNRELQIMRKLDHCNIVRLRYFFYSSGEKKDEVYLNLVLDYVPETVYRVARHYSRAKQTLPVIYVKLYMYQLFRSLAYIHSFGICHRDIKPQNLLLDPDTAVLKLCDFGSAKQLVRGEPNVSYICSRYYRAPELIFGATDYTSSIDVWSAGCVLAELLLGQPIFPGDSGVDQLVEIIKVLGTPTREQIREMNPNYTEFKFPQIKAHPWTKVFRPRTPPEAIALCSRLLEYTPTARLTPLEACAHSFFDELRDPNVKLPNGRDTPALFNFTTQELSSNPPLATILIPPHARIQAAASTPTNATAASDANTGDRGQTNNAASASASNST
T2 sequence (P49840 whole entry): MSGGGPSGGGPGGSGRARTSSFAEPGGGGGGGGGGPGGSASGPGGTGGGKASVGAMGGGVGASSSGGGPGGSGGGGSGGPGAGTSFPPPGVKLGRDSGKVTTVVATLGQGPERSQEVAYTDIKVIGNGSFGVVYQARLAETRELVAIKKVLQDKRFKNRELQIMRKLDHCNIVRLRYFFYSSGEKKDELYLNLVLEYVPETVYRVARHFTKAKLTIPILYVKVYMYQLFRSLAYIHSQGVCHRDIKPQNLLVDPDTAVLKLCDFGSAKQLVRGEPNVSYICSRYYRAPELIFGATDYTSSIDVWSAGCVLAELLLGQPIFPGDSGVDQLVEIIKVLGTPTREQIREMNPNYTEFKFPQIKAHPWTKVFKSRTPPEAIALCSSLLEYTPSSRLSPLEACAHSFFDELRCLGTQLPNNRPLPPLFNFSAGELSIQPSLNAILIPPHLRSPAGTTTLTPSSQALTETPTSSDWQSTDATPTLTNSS
Cyclin-dependent kinase 9, sequence (P50750 whole entry): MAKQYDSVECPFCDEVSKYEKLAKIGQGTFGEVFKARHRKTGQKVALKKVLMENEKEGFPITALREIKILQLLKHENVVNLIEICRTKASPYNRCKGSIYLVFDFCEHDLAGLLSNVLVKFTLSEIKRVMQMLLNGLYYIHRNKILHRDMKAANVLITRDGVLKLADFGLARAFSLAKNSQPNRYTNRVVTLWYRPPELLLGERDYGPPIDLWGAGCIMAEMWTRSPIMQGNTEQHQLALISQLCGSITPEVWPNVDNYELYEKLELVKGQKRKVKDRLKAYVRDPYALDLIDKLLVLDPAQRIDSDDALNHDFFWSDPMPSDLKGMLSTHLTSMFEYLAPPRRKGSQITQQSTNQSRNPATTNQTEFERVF
Aurora kinase B, sequence (Q96GD4 whole entry): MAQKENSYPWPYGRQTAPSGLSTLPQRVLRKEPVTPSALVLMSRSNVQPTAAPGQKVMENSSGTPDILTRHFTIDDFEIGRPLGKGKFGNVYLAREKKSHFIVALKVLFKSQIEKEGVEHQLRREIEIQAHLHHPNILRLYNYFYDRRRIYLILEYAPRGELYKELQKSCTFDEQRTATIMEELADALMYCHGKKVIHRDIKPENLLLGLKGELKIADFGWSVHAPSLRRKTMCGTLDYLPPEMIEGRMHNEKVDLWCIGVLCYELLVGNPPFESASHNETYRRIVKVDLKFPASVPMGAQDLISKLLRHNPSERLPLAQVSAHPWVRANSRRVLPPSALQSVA
Vascular endothelial growth factor receptor 1, sequence (P17948 whole entry): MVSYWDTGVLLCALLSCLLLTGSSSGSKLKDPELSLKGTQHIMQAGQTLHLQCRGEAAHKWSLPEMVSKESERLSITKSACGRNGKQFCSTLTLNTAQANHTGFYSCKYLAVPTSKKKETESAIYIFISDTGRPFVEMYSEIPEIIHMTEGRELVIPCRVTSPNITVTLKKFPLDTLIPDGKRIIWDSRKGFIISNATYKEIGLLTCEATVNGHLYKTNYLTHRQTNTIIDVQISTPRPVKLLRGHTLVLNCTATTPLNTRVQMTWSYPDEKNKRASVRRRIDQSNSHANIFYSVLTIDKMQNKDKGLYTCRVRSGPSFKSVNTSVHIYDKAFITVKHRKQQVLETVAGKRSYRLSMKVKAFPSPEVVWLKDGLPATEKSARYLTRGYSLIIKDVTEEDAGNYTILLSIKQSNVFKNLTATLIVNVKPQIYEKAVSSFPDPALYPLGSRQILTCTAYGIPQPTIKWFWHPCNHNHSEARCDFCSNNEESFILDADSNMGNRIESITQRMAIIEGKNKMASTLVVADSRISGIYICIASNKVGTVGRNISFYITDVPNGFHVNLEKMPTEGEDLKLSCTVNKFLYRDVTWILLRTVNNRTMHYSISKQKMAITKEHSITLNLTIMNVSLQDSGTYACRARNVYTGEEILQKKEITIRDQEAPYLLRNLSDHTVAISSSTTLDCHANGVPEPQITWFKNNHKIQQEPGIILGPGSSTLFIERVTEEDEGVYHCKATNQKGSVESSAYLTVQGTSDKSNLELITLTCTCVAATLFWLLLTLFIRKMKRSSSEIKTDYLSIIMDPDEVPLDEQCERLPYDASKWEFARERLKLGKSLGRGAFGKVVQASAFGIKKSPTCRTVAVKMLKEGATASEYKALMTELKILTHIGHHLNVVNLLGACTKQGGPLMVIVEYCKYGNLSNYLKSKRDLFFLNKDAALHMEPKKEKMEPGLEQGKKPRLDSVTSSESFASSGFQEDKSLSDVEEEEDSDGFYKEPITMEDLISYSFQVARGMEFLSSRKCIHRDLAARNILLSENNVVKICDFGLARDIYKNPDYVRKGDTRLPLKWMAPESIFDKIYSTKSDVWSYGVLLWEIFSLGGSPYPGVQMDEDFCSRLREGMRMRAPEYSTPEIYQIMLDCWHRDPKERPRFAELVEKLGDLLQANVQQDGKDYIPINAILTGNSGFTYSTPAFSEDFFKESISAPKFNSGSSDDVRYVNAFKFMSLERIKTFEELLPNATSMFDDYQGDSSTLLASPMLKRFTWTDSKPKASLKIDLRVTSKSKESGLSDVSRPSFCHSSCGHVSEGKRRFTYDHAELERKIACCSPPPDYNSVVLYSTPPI
Serine/threonine-protein kinase Chk1, sequence (O14757 whole entry): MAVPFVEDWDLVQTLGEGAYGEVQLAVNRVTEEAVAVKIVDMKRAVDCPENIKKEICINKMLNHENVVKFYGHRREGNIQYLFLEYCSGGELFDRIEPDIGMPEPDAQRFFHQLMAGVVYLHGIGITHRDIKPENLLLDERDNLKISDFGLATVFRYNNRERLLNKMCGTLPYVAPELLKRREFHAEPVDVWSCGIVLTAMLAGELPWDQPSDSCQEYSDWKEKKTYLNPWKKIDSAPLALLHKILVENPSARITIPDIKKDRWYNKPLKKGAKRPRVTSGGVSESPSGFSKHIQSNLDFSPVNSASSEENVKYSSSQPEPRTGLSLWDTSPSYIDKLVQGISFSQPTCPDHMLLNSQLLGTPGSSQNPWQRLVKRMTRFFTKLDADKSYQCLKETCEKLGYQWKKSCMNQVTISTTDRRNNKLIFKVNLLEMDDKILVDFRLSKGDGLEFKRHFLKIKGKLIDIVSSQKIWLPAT
Death-associated protein kinase 3, sequence (O43293 whole entry): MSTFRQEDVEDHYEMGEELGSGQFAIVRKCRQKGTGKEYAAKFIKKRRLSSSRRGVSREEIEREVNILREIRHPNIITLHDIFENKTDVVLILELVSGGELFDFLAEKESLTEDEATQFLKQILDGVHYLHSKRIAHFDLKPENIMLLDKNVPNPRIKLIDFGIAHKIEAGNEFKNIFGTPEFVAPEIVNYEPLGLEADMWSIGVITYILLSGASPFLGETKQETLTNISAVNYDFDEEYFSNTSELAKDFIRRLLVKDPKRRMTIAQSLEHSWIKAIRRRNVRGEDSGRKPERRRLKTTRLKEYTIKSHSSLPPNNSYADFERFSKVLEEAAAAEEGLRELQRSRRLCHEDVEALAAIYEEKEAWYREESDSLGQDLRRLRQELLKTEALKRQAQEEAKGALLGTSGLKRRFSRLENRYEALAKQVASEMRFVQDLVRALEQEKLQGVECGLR
Protein kinase C theta type, sequence (Q04759 whole entry): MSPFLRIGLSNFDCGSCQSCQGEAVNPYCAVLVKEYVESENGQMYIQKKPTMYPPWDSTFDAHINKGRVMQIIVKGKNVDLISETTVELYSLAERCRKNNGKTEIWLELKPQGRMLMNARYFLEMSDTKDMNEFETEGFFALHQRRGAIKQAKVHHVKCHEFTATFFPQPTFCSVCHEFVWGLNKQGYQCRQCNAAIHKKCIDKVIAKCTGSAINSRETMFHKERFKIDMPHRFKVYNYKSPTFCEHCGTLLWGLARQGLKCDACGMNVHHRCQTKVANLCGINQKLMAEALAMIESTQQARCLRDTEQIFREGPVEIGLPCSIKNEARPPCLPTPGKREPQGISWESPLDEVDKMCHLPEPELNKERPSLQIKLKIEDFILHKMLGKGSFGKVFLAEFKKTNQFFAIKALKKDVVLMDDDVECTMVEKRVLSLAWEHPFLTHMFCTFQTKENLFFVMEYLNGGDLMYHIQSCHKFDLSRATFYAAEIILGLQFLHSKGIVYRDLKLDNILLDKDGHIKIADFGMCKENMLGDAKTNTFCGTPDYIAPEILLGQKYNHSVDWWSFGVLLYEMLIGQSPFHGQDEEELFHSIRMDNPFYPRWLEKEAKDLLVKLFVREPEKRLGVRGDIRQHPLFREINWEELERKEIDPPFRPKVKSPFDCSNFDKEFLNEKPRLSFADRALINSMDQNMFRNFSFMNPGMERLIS
Melanin-concentrating hormone receptor 1, sequence (Q99705 whole entry): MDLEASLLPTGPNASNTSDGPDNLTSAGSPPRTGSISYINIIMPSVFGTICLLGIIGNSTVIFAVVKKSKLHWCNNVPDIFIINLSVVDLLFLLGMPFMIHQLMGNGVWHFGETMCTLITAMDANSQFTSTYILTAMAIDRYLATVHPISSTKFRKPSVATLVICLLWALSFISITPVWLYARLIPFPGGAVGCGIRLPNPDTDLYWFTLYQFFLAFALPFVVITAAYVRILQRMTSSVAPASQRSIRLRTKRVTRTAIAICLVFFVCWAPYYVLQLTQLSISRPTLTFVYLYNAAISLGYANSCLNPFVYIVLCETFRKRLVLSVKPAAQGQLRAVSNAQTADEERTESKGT

In the case of `COc1cc(/C=N/n2c(S)nnc2C2CCCCC2)cc(Br)c1O`, the results for the AC50 in test [1], in test [2] and in test [3] were 958 nM (active), 10.4 µM (active) and 16.8 µM (active), respectively.

On to `NC(=O)c1cc2ccncc2s1`, for which the Ki in [4] is 7.94 µM (active); in test [5], 2.51 µM (active); in [6], 25.1 µM (active); in [7], 25.1 µM (active); in test [8], 79.4 µM (active); in test [9], 12.6 µM (active). Further, the Ki is 15.8 µM (active) in test [10]; 10 µM (active) in [11]; 794 nM (active) in test [12]; 1.26 µM (active) in test [13]; 5.01 µM (active) in [14]; 3.16 µM (active) in [15]. The Ki is 39.8 µM (active) in test [16]; 31.6 µM (active) at Aurora kinase B; 1.58 µM (active) in test [17]; 39.8 µM (active) in test [18]; 15.8 µM (active) at LIM domain kinase 1; 63.1 µM (active) at Aurora kinase A. For the same molecule, the Ki was 3.98 µM (active) in test [19]; 79.4 µM (active) in test [20]; 7.94 µM (active) in test [21]; 63.1 µM (active) in [22]; 12.6 µM (active) in test [23]; 39.8 µM (active) in test [24]. Moreover, the inhibitory constant (Ki) is 794 nM (active) in [25]; 1.58 µM (active) in [26]; 10 µM (active) in [27]; 12.6 µM (active) in [28]; 79.4 µM (active) in [29]; 501 nM (active) in [30]. Moreover, the Ki was > 100 µM (inactive) in test [31]; > 100 µM (inactive) in test [32]; 79.4 µM (active) on Activin receptor type-1; 79.4 µM (active) in [33]; 31.6 µM (active) in [34]; 63.1 µM (active) in test [35]. Besides, the Ki was 79.4 µM (active) in [36]; 3.16 µM (active) in test [37]; 15.8 µM (active) in test [38]; 100 µM (active) at Focal adhesion kinase 1; 3.98 µM (active) in test [39]; 10 µM (active) in test [40]. Moreover, the Ki in [41] and in [42] was 63.1 µM (active) throughout.

Consider `COc1cccc(C(C#N)c2c(Cl)cnn(Cc3cccc4ccccc34)c2=O)c1` (centres undefined), for which the IC50 in test [43] was 12.1 µM (inactive); in test [44] it was 569 nM (active).
